Measured values taken from patent EP4707289A1, “STEROID-CATIONIC LIPID COMPOUND AND USE THEREOF” (priority 2023, dated 2024).

System: IL-6
Details: three-component LNP based on the compound, SARS-CoV-2 antigen mRNA, 30 µg intramuscular; compared with four-component LNP of ALC-0315; FIG. 4

Structure (SMILES) | expression levels of the systemic inflammatory factor IL-6
CCCCCCCCC(CCCCCC)C(=O)OCCCCCCN(CCCCO)CCCCCCOC(=O)O[C@H]1CC[C@@]2(C)C(=CC[C@H]3[C@@H]4CC[C@H]([C@H](C)CCCC(C)C)[C@@]4(C)CC[C@@H]32)C1 (stereo partly drawn) [Compound 1] | significantly reduced
CCCCCCCCC(CCCCCC)C(=O)OCCCCCCN(CCCCCCOC(=O)O[C@H]1CC[C@@]2(C)C(=CC[C@H]3[C@@H]4CC[C@H]([C@H](C)CCCC(C)C)[C@@]4(C)CC[C@@H]32)C1)CCCn1ccnc1 (stereo partly drawn) [Compound 6] | significantly reduced
CCCCCCCCC(CCCCCC)C(=O)OCCCCCCN(CCCn1ccnc1)CCOC(=O)O[C@H]1CC[C@@]2(C)C(=CC[C@H]3[C@@H]4CC[C@H]([C@H](C)CCCC(C)C)[C@@]4(C)CC[C@@H]32)C1 (stereo partly drawn) [Compound 11] | significantly reduced
